Experimental data reported in patent US8048918B2, “Treatment of hyperproliferative diseases” (Vampex Limited, priority 2000, dated 2011).
Where no end group is shown, it is not given here.

Key:
[1] = tested on: hyperproliferative psoriatic keratinocytes; assay: differentiation assay (K1/K10 mRNA, Northern blot / RT-PCR) on hyperproliferative psoriatic keratinocytes; assay type: cell-based, human; settings: peptides 6 μM, Ca2+ 1.2 mM, RBP 0.6 μM
Procedure: RNA extraction is carried out according to the manufacturers instructions using the RNeasy kit (QIAGEN). 20 μg of RNA for each treatment was separated on a 1.2% agarose (1.8% formaldehyde) gel and transferred onto a nylon membrane (Zeta probe GT membranes, BioRad) by capillary transfer. The RNA is fixed to the membrane by UV crosslinking. DNA probes for the differentiation markers K1 and K10(50 ng) are labelled with [α-^32P] dCTP using the Prime-It RmT Primer labeling kit (Stratagene) following the manufacturer's instructions. Unincorporated nucleotides are removed by elution through a Microspin G25 column (Pharmacia Biotech). The blots are wetted in 0.25M sodium phosphate (pH 7.2)/7% SDS for 30 minutes at 65° C. Fresh hybridisation solution is added along with the radiolabelled probe and the blot is hybridised overnight at 65° C.
The blot is washed for 2×5 minutes in 0.25M sodium phosphate (pH 7.2), 7% SDS and then for 2×5 minutes in 20 mM sodium phosphate (pH 7.2), 5% SDS at 65° C. The wash steps are repeated until a clear distinction can be made between the signal and non-specific background. The blot is exposed to x-ray film for 24 hours before developing.
Synthesis of mRNA for the K1 and K10 keratin (markers for commitment to terminal differentiation) is examined by quantitative reverse transcription PCR (RT-PCR). Synthesis of mRNA for Cyclin D (a marker for cell proliferation) is also assayed by RT-PCR. Standard protocol for RT-PCR is followed as recommended by the manufacturer of the PCR machine (PE 2400) using 1 μg RNA from each keratinocyte culture. Suitable primers for RT-PCR are designed based on the human sequences of K1 and K10 deposited in GenBank. Northern blots are also performed: cells are harvested, RNA extracted and 20 μg RNA loaded into each well of a formaldehyde/agarose gel. The RNA is blotted onto a nylon membrane by capillary transfer and expression of K1 mRNA is determined by Northern hybridisation with a radiolabelled DNA probe.
Next, hyperproliferative epidermal keratinocytes are obtained, isolated and cultured as described above in Example 3. Hyperproliferative psoriatic keratinocytes are cultured as described above in serum-free medium with or without the addition of […] human retinol binding protein. At confluence the cells are treated (see Table 3 below) for 96 hours with peptides to 6 μM (medium replaced after 48 hours). Treatments shown in the Table 3 are for duplicate T-25 flasks (2×7 ml for each treatment).
The final concentrations are: Ca^2+ 1.2 mM, RBP 0.6 μM, peptides 6 μM.
Expression of K1 and K10 markers is determined as described above in Example 4. […]
Synthesis of mRNA for markers of proliferation and differentiation is also examined by semi-quantitative reverse transcription PCR (RT-PCR). […]

COS-1 cells = assay: proliferation assay of COS-1 cells (Coulter counter); assay type: cell-based; settings: P142 1 mg/ml, peptides 6 μM; 24 and 48 hours after treatment; FIG. 7
Procedure: (§1) […] (COS1 and COS7) are purchased from the European Cell Culture Collection, thawed and propagated according to the instructions from the supplier; cells are cultured essentially in the same manner as for normal human keratinocytes (Example 3 above), except that cells are seeded at 20 000 cells/cm^2, with only one treatment with antibody P142, control immunoglobulin, peptide 589, peptide 592 or control peptide 24 hrs after seeding.
(§2) Proliferation is assayed by counting cells in a Coulter counter, as described above.

COS-7 cells = assay: proliferation assay of COS-7 cells (Coulter counter); assay type: cell-based; settings: P142 1 mg/ml, peptides 6 μM; 24 and 48 hours after treatment; FIG. 8
Procedure: as §1, §2

RalDHI = target: T1, RalDHI (Rattus norvegicus, UniProt P51647); settings: Penzes et al. 1997; Chen and Juchau 1997; cited from earlier work
T1 sequence (P51647 1-501): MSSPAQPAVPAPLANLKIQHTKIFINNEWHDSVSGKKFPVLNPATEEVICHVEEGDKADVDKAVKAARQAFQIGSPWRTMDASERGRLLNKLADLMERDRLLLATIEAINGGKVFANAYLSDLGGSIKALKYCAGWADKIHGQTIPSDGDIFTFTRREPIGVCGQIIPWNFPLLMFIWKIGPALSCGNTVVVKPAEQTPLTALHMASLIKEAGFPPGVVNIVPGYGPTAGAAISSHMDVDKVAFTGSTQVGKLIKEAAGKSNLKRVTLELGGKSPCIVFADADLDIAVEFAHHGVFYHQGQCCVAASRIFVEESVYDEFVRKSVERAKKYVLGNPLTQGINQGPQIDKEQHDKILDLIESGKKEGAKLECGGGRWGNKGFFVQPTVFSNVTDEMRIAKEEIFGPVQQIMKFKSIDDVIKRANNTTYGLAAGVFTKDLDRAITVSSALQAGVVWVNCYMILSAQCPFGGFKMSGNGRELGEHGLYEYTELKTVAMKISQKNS

RalDHII = target: T2, RalDHII (Rattus norvegicus, UniProt Q63639); settings: Penzes et al. 1997; Chen and Juchau 1997; cited from earlier work
T2 sequence (Q63639 1-518): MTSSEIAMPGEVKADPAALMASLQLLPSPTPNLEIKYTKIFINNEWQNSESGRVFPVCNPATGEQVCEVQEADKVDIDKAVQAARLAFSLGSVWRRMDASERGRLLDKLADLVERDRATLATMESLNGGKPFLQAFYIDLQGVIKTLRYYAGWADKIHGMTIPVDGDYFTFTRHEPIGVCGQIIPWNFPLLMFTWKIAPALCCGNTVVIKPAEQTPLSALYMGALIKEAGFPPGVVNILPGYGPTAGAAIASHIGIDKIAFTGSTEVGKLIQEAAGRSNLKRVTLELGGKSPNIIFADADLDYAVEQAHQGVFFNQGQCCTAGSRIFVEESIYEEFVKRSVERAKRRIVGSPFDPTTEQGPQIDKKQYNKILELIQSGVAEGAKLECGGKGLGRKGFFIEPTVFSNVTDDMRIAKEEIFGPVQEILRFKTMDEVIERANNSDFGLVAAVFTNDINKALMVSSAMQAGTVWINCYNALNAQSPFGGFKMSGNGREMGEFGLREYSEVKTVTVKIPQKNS

Molecule	differentiation (expression of K1 and K10 markers) [1]	differentiation (expression of K1 and K10 markers) ([1]; listed as peptide 389)	proliferation of Cos-1 cells (cell numbers) (COS-1 cells)	proliferation of Cos-7 cells (cell numbers) (COS-7 cells)	IC50 (RalDHI) [µM]	IC50 (RalDHII) [µM]
GRVRLLNNWDVCA	enhances the expression of K1 and K10 markers	reversed	marked reduction in proliferation	marked reduction in proliferation		
CC(C)=CCCC(C)=CC=O [Citral, 3,7-dimethyl-2,6-octadienal]					1	12
